Reference: article PMC9220351, “Evaluation of a Conformationally Constrained Indole Carboxamide as a Potential Efflux Pump Inhibitor in Pseudomonas aeruginosa” (Antibiotics, 2022)

Key:
[1] = system: P. aeruginosa ATCC 27853 efflux of EtBr; test: Ethidium bromide (EtBr) efflux inhibition assay; assay type: cell-based, Pseudomonas aeruginosa; details: fluorescence, after glucose activation
Experimental: The ability of TXA09155 to inhibit efflux in P. aeruginosa was studied using two quantitative assays to establish efflux inhibition as the MOA. In the first assay, the efflux of ethidium bromide (EtBr) by P. aeruginosa cells is studied in the presence of different concentrations of TXA09155. Wild-type P. aeruginosa ATCC 27853 cells were incubated with EtBr to allow for the intracellular accumulation and were treated with CCCP to inhibit active efflux. […] Following activation by the addition of glucose, the efflux of EtBr can be followed in real time as a decrease in fluorescence based on the concentration of TXA09155.
Efflux of EtBr from P. aeruginosa in the presence of TXA09155 was carried out as described previously.

[2] = system: P. aeruginosa ATCC 27853 inner membrane potential; test: DiOC2 (3) membrane polarization assay; assay type: cell-based, Pseudomonas aeruginosa; details: 20 to 0.01 μM
Experimental: RND efflux pumps couple the influx of protons from the proton gradient across the inner membrane to the efflux of drugs and other molecules. […] The effect of TXA09155 on the proton gradient of P. aeruginosa was assessed with a fluorescence-based 3,3′-diethyloxacarbocyanine iodide [DiOC2 (3)] assay that was developed to measure membrane potential changes in Gram-negative bacteria. DiOC2 (3) is a positively charged fluorescent dye that accumulates within cells in a charge-dependent manner, shifting its fluorescence spectrum from green to red at high concentrations due to concentration-dependent dye stacking. […] Azithromycin and CCCP were used as […] controls, respectively.
P. aeruginosa membrane polarization assays were conducted as described previously using strain ATCC 27853. […] DiOC2 (3) fluorescence was recorded in a microplate reader using 450 nm excitation and 670 nm emission (for red fluorescence). Background correction for each concentration of each compound was obtained from reading the fluorescence of compounds in the resuspension buffer without cells. After background correction, fluorescence was normalized to that of the vehicle (DMSO) only. After a 30 min incubation at 37 °C, DiOC2 (3) fluorescence was recorded using a SpectraMax iD5 spectrophotometer (Molecular Devices, San Jose, CA, USA) following excitation at 450 nm. […]

P. aeruginosa ATCC 27853 = test: Intracellular ATP levels; assay type: cell-based, Pseudomonas aeruginosa; details: 1/4th and 1/8th MIC, 3 h
Experimental: P. aeruginosa intracellular ATP levels were determined as described previously using an ATP determination kit (catalog number A22066; Thermo Fisher Scientific, Waltham, MA, USA). […] After treatment, the cells were lysed in chloroform, which was subsequently removed by boiling at 80 °C. The persistent ATP from cell lysate was measured in a 96-well black flat-bottom plate and plotted as relative luminescence units. […] Error bars represent the standard deviation of triplicates.

Solubility at pH 7.4 = assay type: physicochemical; details: pH 7.4, aqueous buffer
[3] = Metabolic stability in rat liver microsomes; assay type: in vitro ADME
Experimental: The metabolic stability of TXA09155 was determined in human, mouse, and rat liver microsomes by Eurofins (St. Charles, MO, USA) using the substrate depletion method (in vitro half-life (t1/2) method). Quantification was performed by LC/MS/MS. In this assay, depletion of the parent compound is measured over time to determine the compound’s in vitro t1/2 and hepatic extraction ratios (ER). This is used to predict metabolic clearance. […] This assay utilizes electrophysiology measurements on the electric current passing through the hERG channel heterologously expressed in a stable CHO cell line. Channels are open by a hERG-specific voltage protocol, and the compound effects are directly characterized by their block of the hERG current. The assay is performed on an automated platform, Q-Patch.

CYP1A2 = CYP1A2 (Homo sapiens, UniProt P05177); test: CYP inhibition; assay type: in vitro ADME; details: read-out: CYP Inhibition IC50, CYP 1A2
CYP2C9 = CYP2C9 (Homo sapiens, UniProt P11712); test: CYP inhibition; assay type: in vitro ADME; details: read-out: CYP Inhibition IC50, CYP 2C9
CYP2D6 = CYP2D6 (Homo sapiens, UniProt P10635); test: CYP inhibition; assay type: in vitro ADME; details: read-out: CYP Inhibition IC50, CYP 2D6
human RBCs = test: Hemolytic activity; assay type: cell-based; details: 12.5 to 100 µM

Sequence of CYP1A2 (P05177 whole entry): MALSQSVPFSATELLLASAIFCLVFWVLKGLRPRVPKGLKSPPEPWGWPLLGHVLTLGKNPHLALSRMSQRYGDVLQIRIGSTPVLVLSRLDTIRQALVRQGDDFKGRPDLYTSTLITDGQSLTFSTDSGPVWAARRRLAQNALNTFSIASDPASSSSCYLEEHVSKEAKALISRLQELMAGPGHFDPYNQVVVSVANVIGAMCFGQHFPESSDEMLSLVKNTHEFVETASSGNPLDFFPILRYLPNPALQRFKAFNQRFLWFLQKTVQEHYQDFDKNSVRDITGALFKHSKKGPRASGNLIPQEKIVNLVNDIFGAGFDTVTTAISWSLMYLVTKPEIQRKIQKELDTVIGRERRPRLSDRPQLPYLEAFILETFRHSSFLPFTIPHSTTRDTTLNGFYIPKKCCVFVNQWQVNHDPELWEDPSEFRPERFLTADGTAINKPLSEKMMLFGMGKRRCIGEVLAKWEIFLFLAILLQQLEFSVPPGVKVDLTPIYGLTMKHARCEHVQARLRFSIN
Sequence of CYP2C9 (P11712 whole entry): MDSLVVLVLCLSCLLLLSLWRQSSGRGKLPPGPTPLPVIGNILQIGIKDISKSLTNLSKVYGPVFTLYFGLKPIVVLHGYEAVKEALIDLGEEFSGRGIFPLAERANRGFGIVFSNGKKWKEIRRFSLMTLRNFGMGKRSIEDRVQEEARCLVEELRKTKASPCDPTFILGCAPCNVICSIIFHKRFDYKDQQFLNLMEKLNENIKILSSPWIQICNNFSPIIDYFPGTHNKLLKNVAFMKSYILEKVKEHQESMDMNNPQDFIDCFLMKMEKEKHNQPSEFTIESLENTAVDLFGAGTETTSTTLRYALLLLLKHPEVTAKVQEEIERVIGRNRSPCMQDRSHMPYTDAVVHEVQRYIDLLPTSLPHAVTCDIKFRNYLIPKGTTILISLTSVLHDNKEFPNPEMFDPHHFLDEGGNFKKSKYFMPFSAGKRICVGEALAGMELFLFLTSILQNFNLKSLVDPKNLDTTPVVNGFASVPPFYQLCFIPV
Sequence of CYP2D6 (P10635 whole entry): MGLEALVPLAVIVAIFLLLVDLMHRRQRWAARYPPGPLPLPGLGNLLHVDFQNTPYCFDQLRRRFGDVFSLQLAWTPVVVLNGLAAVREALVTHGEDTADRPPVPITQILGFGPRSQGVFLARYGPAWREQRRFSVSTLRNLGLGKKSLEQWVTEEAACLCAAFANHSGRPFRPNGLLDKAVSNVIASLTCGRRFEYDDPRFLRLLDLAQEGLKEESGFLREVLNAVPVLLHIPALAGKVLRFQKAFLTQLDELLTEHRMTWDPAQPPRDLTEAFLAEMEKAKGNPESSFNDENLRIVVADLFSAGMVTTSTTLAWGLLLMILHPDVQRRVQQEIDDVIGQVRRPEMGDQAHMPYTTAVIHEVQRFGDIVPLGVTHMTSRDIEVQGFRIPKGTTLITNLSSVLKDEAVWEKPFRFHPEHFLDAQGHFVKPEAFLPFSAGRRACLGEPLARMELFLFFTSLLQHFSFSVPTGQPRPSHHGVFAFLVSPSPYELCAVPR

Cl.NC[C@@H]1CN[C@H](CNC(=O)c2cc3ccc(-c4ccc(F)cc4)cc3[nH]2)C1 [TXA09155, N-(((2S,4R)-4-(aminomethyl)pyrrolidine-2-yl)methyl)-6-(4-fluorophenyl)-1H-indole-2-carboxamide hydrochloride salt]
inhibition of EtBr efflux [1]: concentration-dependent inhibition | membrane depolarization [2]: did not lead to membrane depolarization | ATP depletion (P. aeruginosa ATCC 27853): did not result in ATP depletion | solubility (Solubility at pH 7.4): > 155 µM | HLM and RLM Metabolic Stability (RLM) [3]: >60% | IC50 (CYP1A2): > 100 µM | IC50 (CYP2C9): > 100 µM | IC50 (CYP2D6): 67.2 µM | hemolytic activity (human RBCs): did not display hemolytic activity
